In patent US12296027B2, “Molecular renal probes for detecting acute kidney injury” (Nanyang Technological University, priority 2019, dated 2025):
Read-outs that look alike come from different tables or passages of the source.

What was measured:
[1] = Body weight of drug-treated mice; format: in vivo; conditions: BALB/c mice, single i.v. dose
Description: Mice were randomly selected and treated with cisplatin (5 mg kg^−1, 10 mg kg^−1 or 20 mg kg^−1 body weight, i.p. injection), gentamicin (100 mg kg^−1 day^−1, i.p. injection) or diatrizoate (1000 mg kg^−1 body weight, i.v injection, water deprivation for 24 h before treatment). The control groups were treated with saline (0.2 ml) or NAC (400 mg kg^−1 body weight, i.v injection) 30 min prior to cisplatin administration^50. Body weights of all the mice were recorded during treatment. After drug administration, the weight of mice and signs of discomfort were monitored on a daily basis during the entire experiments (FIG. 46). Imaging, blood and urine sampling were conducted at different timepoints post-treatment of drug. At the end, mice were euthanized and major organs were placed into 4% paraformaldehyde for histological examination.
For the doxorubicin model, dose-finding studies were first carried out to define an optimal dose of 10 mg kg^−1 body weight of doxorubicin. […] The corresponding MRP (40 mg kg^−1) was systematically injected through the tail vein at t=0, 2 d, 5 d, and 8 d post-treatment of DOX, and fluorescence images were acquired. […] Fluorescence images of living mice and urine samples were acquired for 0.1 s with excitation at 675±20 nm, and emission at 720±20 nm. Fluorescence images were analysed by ROI analysis using the Living Image 4.0 Software.

[2] = cited from earlier work
[3] = in DMSO; cited from earlier work
[4] = Commercial assays of serum and urinary kidney injury biomarkers in drug-treated mice; format: in vivo
Description: Urine was collected using metabolic cages from drug-treated mice at different timepoints post-treatment of drug. The collected urine samples were centrifuged at 4500 r.p.m. for 8 min and filtered by 0.22 μm syringe filter. MRPs1-3 solutions (30 μM) in PBS buffer (10 mM, pH 7.4) were incubated with the urine (100 μl) at 37° C., followed by fluorescence measurements on fluorescence spectrophotometer after 2 h incubation (9 mice were analysed for each sample). Urinary TFF3, osteopontin, NGAL, β2-Microglobulin, KIM-1, clusterin levels were quantified using ELISA kits according to the manufacturer's protocol (6 mice were analysed for each sample).
Blood was collected from the tail vein in living NCr nude mice under isoflurane anesthesia at t=8, 12, 16, 24, or 48 h post-treatment of cisplatin (20 mg kg^−1 body weight), or at t=24, 48, 72, 96, or 144 h post-treatment of gentamicin (100 mg kg^−1 day^−1 body weight), or at t=2, 8, 16, 24, or 48 h post-treatment of diatrizoate (1000 mg kg^−1 body weight), or saline (0.2 ml) treated mice. The collected blood samples were centrifuged for 20 min at 3500 r.p.m. Serum creatinine, BUN and cystatin C were determined using commercial kits according to the manufacturer's protocol (5 mice were analysed for each sample).
Blood was collected from the tail vein in living mice under isoflurane anesthesia at t=2, 8, 16, 24 or 48 h post-treatment of diatrizoate (1 g kg^−1 body weight), or PBS treated mice, or NAC/DTZ co-treated mice. The collected blood samples were centrifuged for 15 min at 4500 r.p.m. Serum creatinine and BUN were determined using commercial kits according to the manufacturer's protocol (3 mice were analysed for each sample).

[5] = Determination of GFR by FITC-inulin method in drug-treated mice; format: in vivo
Description: FITC-inulin (150 mg) was dissolved in 0.9% NaCl (3 ml) at 75° C. and dialysed in 0.9% NaCl (1000 ml) at room temperature for 24 h. Dialysed FITC-inulin (3.74 μl g^−1 […]), or at t=24, 36, 48, 96, or 144 h post-treatment of gentamicin (100 mg kg^−1 day^−1 body weight), or at t=2, 8, 16, 24, or 48 h post-treatment of diatrizoate (1000 mg kg^−1 body weight), or saline (0.2 ml) treated mice. Blood (approximately 20 μl) was collected via saphenous vein at 3, 7, 10, 15, 35, 55, and 75 min post-injection of FITC-inulin, and then centrifuged for 20 min at 3500 r.p.m. Serum sample (10 μl) was diluted with HEPES buffer (40 μl, 500 mM, pH 7.4) and fluorescence was measured using spectramax with excitation at 485 nm and emission at 538 nm. Serum fluorescence data were presented as a two-component exponential decay curve using nonlinear regression (3 mice were analysed for each sample). GFR was calculated according to the equation (Z. Qi, et al., Am. J. Physiol. Renal. Physiol. 2004, 286, F590-596): […], where I is the amount of FITC-inulin delivered by the bolus injection, A and B are the y-intercept values of the two decay rates, and α and β are the decay constants for the distribution and elimination phases, respectively.
FITC-inulin (150 mg) was dissolved in 0.9% NaCl (3 ml), heated at 75° C. and dialysed in 0.9% NaCl (1000 ml) at room temperature for 24 h. Dialysed FITC-inulin (3.74 μl g^−1 body weight) was i.v. injected into living mice at =2, 8, 16, 24, or 48 h post-treatment of diatrizoate (1 g kg^−1 body weight), or PBS (0.2 ml) treated mice, or NAC/DTZ co-treated mice. Blood (approximately 20 μl) was collected via tail vein at 3, 7, 10, 15, 35, 55, and 75 min post-injection of FITC-inulin, and then centrifuged for 15 min at 4500 r.p.m. Serum sample (10 μl) was diluted with PBS buffer (40 μl, 10 mM, pH 7.4) and fluorescence was measured using spectramax with excitation at 485 nm and emission at 538 nm. Serum fluorescence data were presented as a two-component exponential decay curve using nonlinear regression (3 mice were analysed for each sample). GFR was calculated according to the equation: […], where 1 is the amount of FITC-inulin delivered by the bolus injection, A and B are the y-intercept values of the two decay rates, and α and β are the decay constants for the distribution and elimination phases, respectively.

[6] = at first significant timepoint, initial studies
[7] = at first significant timepoint, subsequent studies

**Q.** For `COc1cccc2c1C(=O)c1c(O)c3c(c(O)c1C2=O)C[C@@](O)(C(=O)CO)C[C@@H]3O[C@H]1C[C@H](N)[C@H](O)[C@H](C)O1` [DOX, doxorubicin], which “mean body weight gain by day 16” value [1] is on record?
**A.** 3%

**Q.** And the “mean body weight loss by day 8” value [1]?
**A.** approximately 6%

**Q.** With `CNC(=O)CN(CCN(CCN(CC(=O)[O-])CC(=O)NC)CC(=O)[O-])CC(=O)[O-].[Gd+3]` [Gd-DTPA-BMA] as the compound, how does the Renal clearance efficiency ([2]; in 24 h, S.D Rats) read?
**A.** 95% in 24 h

**Q.** Which “fluorescence quantum yield (ϕ) of standard” value [3] does the source give for `CC1(C)C(/C=C/C=C/C=C/C=C2\N(CCCCS(=O)(=O)[O-])c3ccc4ccccc4c3C2(C)C)=[N+](CCCCS(=O)(=O)[O-])c2ccc3ccccc3c21.[Na+]` [ICG] here?
**A.** 13%

**Q.** With `CC(=O)N(CC(O)CO)c1c(I)c(C(=O)NCC(O)CO)c(I)c(C(=O)NCC(O)CO)c1I` (stereo not drawn) [Iohexol] as the compound, how does the Renal clearance efficiency ([2]; in 4 h, S.D rats) read?
**A.** 59.7% in 4 h

**Q.** With `CNC(=O)c1c(I)c(NC(C)=O)c(I)c(C(=O)O)c1I` [Iothalamate] as the compound, how does the Renal clearance efficiency ([2]; in 24 h, S.D rat) read?
**A.** 93.5% ID in 24 h

**Q.** Which results are given for `N.N.[Cl][Pt][Cl]` [cisplatin]?
**A.** time of first statistically significant change of urinary NGAL and trefoil factor-3 ([4]; mouse, in vivo): 48 h; time of first statistically significant increase of urinary KIM-1 and clusterin ([4]; mouse, in vivo): 24 h; time of increase of serum Cystatin C ([4]; mouse, in vivo): 48 h; time of statistically significant change of urinary osteopontin ([4]; mouse, in vivo): 72 h; time of statistically significant change of urinary β2-microglobulin ([4]; mouse, in vivo): 72 h; time of statistically significant increase of sCr and BUN after treatment ([4]; mouse, in vivo): 72 h; urinary KIM-1 increase ([4]; mouse, in vivo): 1.9 fold; urinary NGAL change ([4]; mouse, in vivo): 2.7 fold; urinary NGAL change, alternative value ([4]; mouse, in vivo): 2.72 fold; urinary clusterin increase ([4]; mouse, in vivo): 4.1 fold; urinary osteopontin change ([4]; mouse, in vivo): 2.3 fold; urinary trefoil factor-3 change ([4]; mouse, in vivo): 0.4 fold; urinary β2-microglobulin change ([4]; mouse, in vivo): 3.9 fold; decrease in GFR at timepoint of sCr/BUN increase ([5]; mouse, in vivo): ~50%

**Q.** Which “BUN relative to control groups” value ([4]; mouse, in vivo) does the source give for `CC(=O)Nc1c(I)c(NC(C)=O)c(I)c(C(=O)O)c1I` [diatrizoate] here?
**A.** 1.8 fold

**Q.** What about the “sCr relative to control groups” value ([4]; mouse, in vivo) of the same compound?
**A.** 1.7 fold

**Q.** And the “time of first statistically significant change of urinary NGAL and trefoil factor-3” value ([4]; mouse, in vivo)?
**A.** 24 h

**Q.** What about the “time of first statistically significant increase of urinary KIM-1 and clusterin” value ([4]; mouse, in vivo) of the same compound?
**A.** 24 h

**Q.** And the “time of statistically significant change of urinary osteopontin” value ([4]; mouse, in vivo)?
**A.** 24 h

**Q.** And the “time of statistically significant change of urinary β2-microglobulin” value ([4]; mouse, in vivo)?
**A.** 48 h

**Q.** What about the “time of statistically significant increase of sCr and BUN after treatment” value ([4]; mouse, in vivo) of the same compound?
**A.** 24 h

**Q.** And the “urinary KIM-1 increase” value ([4]; mouse, in vivo)?
**A.** 3.7 fold

**Q.** And the “urinary NGAL change” value ([4]; mouse, in vivo)?
**A.** 2.3 fold

**Q.** What about the “urinary NGAL change, alternative value” ([4]; mouse, in vivo) of the same compound?
**A.** 2.05 fold

**Q.** And the urinary clusterin increase ([4]; mouse, in vivo)?
**A.** 3.0 fold

**Q.** And the urinary osteopontin change ([4]; mouse, in vivo)?
**A.** 2.3 fold

**Q.** What about the “urinary trefoil factor-3 change” value ([4]; mouse, in vivo) of the same compound?
**A.** 0.5 fold

**Q.** And the “urinary β2-microglobulin change” value ([4]; mouse, in vivo)?
**A.** 3.6 fold

**Q.** What about the “decrease in GFR at 24 h post-treatment” value ([5]; mouse, in vivo) of the same compound?
**A.** ~40%

**Q.** And the “decrease in GFR at 48 h post-treatment” value ([5]; mouse, in vivo)?
**A.** ~60%

**Q.** And the “decrease in GFR at timepoint of sCr/BUN increase” value ([5]; mouse, in vivo)?
**A.** ~50%

**Q.** What does the source list for gentamicin?
**A.** urinary KIM-1 increase ([4]; at first significant timepoint): 2.2 fold; urinary NGAL change ([4]; at first significant timepoint): 2.0 fold; urinary NGAL change, alternative value ([4]; at first significant timepoint): 1.98 fold; urinary clusterin increase ([4]; at first significant timepoint): 3.5 fold; urinary osteopontin change ([4]; at first significant timepoint): 2.3 fold; urinary trefoil factor-3 change ([4]; at first significant timepoint): 0.3 fold; urinary β2-microglobulin change ([4]; at first significant timepoint): 3.2 fold; BUN increase [4, 6]: 2.23 fold; sCr increase [4, 6]: 2.82 fold; BUN increase [4, 7]: 2.4 fold; sCr increase [4, 7]: 2.9 fold; time of first statistically significant change of urinary NGAL and trefoil factor-3 ([4]; mouse, in vivo): 96 h; time of first statistically significant increase of urinary KIM-1 and clusterin ([4]; mouse, in vivo): 72 h; time of statistically significant change of urinary osteopontin ([4]; mouse, in vivo): 144 h; time of statistically significant change of urinary β2-microglobulin ([4]; mouse, in vivo): 144 h; time of statistically significant increase of sCr and BUN after treatment ([4]; nephrotoxic dose, mice): 144 h; decrease in GFR at timepoint of sCr/BUN increase ([5]; 72 h cisplatin, 144 h gentamicin, 24 h diatrizoate): ~50%
